Target: T1, SIRT1 (Homo sapiens, UniProt Q96EB6)
T1 sequence (Q96EB6 1-747): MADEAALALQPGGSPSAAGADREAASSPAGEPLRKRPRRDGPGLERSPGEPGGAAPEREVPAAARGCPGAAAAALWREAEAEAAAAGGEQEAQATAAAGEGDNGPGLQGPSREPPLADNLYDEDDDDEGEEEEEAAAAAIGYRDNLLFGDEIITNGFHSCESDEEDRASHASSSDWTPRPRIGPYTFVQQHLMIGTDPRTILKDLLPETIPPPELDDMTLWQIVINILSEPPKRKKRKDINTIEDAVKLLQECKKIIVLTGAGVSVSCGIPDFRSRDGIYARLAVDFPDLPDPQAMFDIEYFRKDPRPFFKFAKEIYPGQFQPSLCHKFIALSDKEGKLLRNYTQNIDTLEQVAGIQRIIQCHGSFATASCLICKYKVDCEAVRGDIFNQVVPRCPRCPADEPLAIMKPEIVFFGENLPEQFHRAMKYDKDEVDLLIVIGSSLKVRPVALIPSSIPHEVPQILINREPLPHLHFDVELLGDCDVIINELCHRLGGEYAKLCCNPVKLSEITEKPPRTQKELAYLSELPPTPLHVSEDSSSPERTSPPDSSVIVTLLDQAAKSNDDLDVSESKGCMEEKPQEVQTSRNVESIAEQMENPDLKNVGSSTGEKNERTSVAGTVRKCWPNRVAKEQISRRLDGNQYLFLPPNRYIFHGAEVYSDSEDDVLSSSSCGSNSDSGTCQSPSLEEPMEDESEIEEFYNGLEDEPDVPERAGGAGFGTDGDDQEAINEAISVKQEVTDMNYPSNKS
Assay: Trp mass spectrometry assay of SIRT1 activity (EC1.5, percent maximum activation)
Assay type: biochemical
Conditions: Trp mass spectrometry assay; for TRP Activity (EC1.5): EC1.5 = concentration giving 150% activation of SIRT1; for TRP MAX RESP (percent maximum fold activation): percent maximum activation of SIRT1
How it was run: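 Activation values derive from mass-spectrometric measurement of NAD-dependent deacetylation product after a 25 min reaction of bacterially expressed His-tagged SIRT1 with a fluorophore-labelled Trp peptide.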

Structure (SMILES)	TRP Activity (EC1.5)	TRP MAX RESP (percent maximum fold activation)
O=C(Nc1ccc(OC[C@H](O)CO)cn1)N1c2nc(-c3cccc(C(F)(F)F)c3)c(Cl)cc2N2CC[C@H]1C2 [Example 76, (4S)-8-chloro-N-(5-((R)-2,3-dihydroxypropoxy)pyridin-2-yl)-7-(3-(trifluoromethyl)phenyl)-3,4-dihydro-1,4-methanopyrido[2,3-b][1,4]diazepine-5(2H)-carboxamide]	A (EC1.5<1 μM)	A (Fold activation ≧150%)
O=C(Nc1ccc(OC[C@H](O)CO)nc1)N1c2nc(-c3cccc(C(F)(F)F)c3)c(Cl)cc2N2CC[C@H]1C2 [Example 77, (4S)-8-chloro-N-(6-((R)-2,3-dihydroxypropoxy)pyridin-3-yl)-7-(3-(trifluoromethyl)phenyl)-3,4-dihydro-1,4-methanopyrido[2,3-b][1,4]diazepine-5(2H)-carboxamide]	A (EC1.5<1 μM)	A (Fold activation ≧150%)
O=C(Nc1cncc(OC[C@@H](O)CO)c1)N1c2nc(-c3cccc(C(F)(F)F)c3)c(Cl)cc2N2CC[C@H]1C2 [Example 78, (4S)-8-chloro-N-(5-((S)-2,3-dihydroxypropoxy)pyridin-3-yl)-7-(3-(trifluoromethyl)phenyl)-3,4-dihydro-1,4-methanopyrido[2,3-b][1,4]diazepine-5(2H)-carboxamide]	A (EC1.5<1 μM)	A (Fold activation ≧150%)
O=C(Nc1cccc(OCCO)n1)N1c2nc(-c3cccc(C(F)(F)F)c3)c(Cl)cc2N2CC[C@H]1C2 [Example 79, (4S)-8-chloro-N-(6-(2-hydroxyethoxy)pyridin-2-yl)-7-(3-(trifluoromethyl)phenyl)-3,4-dihydro-1,4-methanopyrido[2,3-b][1,4]diazepine-5(2H)-carboxamide]	A (EC1.5<1 μM)	A (Fold activation ≧150%)
O=C(Nc1cnc(OC[C@@H](O)CO)nc1)N1c2nc(-c3cccc(C(F)(F)F)c3)c(Cl)cc2N2CC[C@H]1C2 [Example 80, (4S)-8-chloro-N-(2-((S)-2,3-dihydroxypropoxy)pyrimidin-5-yl)-7-(3-(trifluoromethyl)phenyl)-3,4-dihydro-1,4-methanopyrido[2,3-b][1,4]diazepine-5(2H)-carboxamide]	A (EC1.5<1 μM)	A (Fold activation ≧150%)
O=C(Nc1ccc(OC[C@@H](O)CO)cn1)N1c2nc(-c3cccc(C(F)(F)F)c3)c(Cl)cc2N2CC[C@H]1C2 [Example 81, (4S)-8-chloro-N-(5-((S)-2,3-dihydroxypropoxy)pyridin-2-yl)-7-(3-(trifluoromethyl)phenyl)-3,4-dihydro-1,4-methanopyrido[2,3-b][1,4]diazepine-5(2H)-carboxamide]	B (EC1.5 1-25 μM)	A (Fold activation ≧150%)
O=C(Nc1ncc(OC[C@H](O)CO)cn1)N1c2nc(-c3cccc(C(F)(F)F)c3)c(Cl)cc2N2CC[C@H]1C2 [Example 82, (4S)-8-chloro-N-(5-((R)-2,3-dihydroxypropoxy)pyrimidin-2-yl)-7-(3-(trifluoromethyl)phenyl)-3,4-dihydro-1,4-methanopyrido[2,3-b][1,4]diazepine-5(2H)-carboxamide]	B (EC1.5 1-25 μM)	A (Fold activation ≧150%)
O=C(Nc1ncc(OC[C@@H](O)CO)cn1)N1c2nc(-c3cccc(C(F)(F)F)c3)c(Cl)cc2N2CC[C@H]1C2 [Example 83, (4S)-8-chloro-N-(5-((S)-2,3-dihydroxypropoxy)pyrimidin-2-yl)-7-(3-(trifluoromethyl)phenyl)-3,4-dihydro-1,4-methanopyrido[2,3-b][1,4]diazepine-5(2H)-carboxamide]	B (EC1.5 1-25 μM)	A (Fold activation ≧150%)

From patent US20170355705A1 (GlaxoSmithKline Intellectual Property (No.2) Limited, priority 2014, published 2017)
